In paper PMC11930913, “Anticancer, antioxidant and antibacterial potential of L-Glutaminase (Streptomyces roseolus strain ZKB1) capped silver and zinc oxide nanoparticles and its molecular characterization” (Bioresources and Bioprocessing, 2025):

Tested on: T1, L-Glutaminase (Streptomyces roseolus strain ZKB1)
T1 construct: gene glsA
Assay: ammonia release by Nessler's reagent, […] nm; Lineweaver-Burk
Assay type: cell-based
Details: free enzyme; phosphate buffer pH 7.0; 37 °C; 30 min; 25-100 mM substrate

Km: 13.9 ± 0.8 mM
SMILES: NC(=O)CC[C@H](N)C(=O)O [L-glutamine]
